Assay results published in US20160058787A1 (priority 2014, published 2016).

Conditions: in vivo

sodium polystyrene sulfonate [NSPS]
reduction of the toxicity and adverse effects of SPS: over 100 folds
